From patent EP4745137A1 (Gluetacs Therapeutics (Shanghai) Co., Ltd., priority 2023, dated 2025)

How the values were obtained:
[1] = tested on: Human acute T lymphocytic leukemia cells (Molt-4); test: Tumor cell proliferation inhibition (CellTiter-Meiluncell Luminescent Cell Viability Assay), Molt-4; details: MOLT-4, 96 h, read-out: inhibitory activity (IC50, nM) against tumor cells proliferation, Molt 4
Description: The tumor cells used herein were cultured in a cell culture medium listed in table 2 at 37°C in an incubator with 5% CO2. Prior to experimentation, all cell lines used were correctly identified by STR profiling, and tested negative for mycoplasma contamination using a mycoplasma detection kit through routine screenings.
On the following day, the test compounds of the present disclosure were subjected to serial dilution. […] Subsequently, 0.5 µL of the test compound dilution was transferred into the 96-well plate containing the cells, with each well containing 100 µL of cell culture medium. […] Into the 96-well plate, the diluted test compounds and corresponding detection reagents were added, resulting in final test compound concentrations of 500 nM and 10 nM, respectively. The experimental procedure is described below using the diluted 2 µM test compound as an example.
After the cells were treated with the compounds of the present disclosure for a specified period (the treatment durations were shown in Table 3), the cell viability assay reagent was added to the culture medium according to the kit's instructions to determine cell viability. […] All controls were treated using the same procedure as the compounds of the present disclosure. The growth inhibition curves for the compounds of the present disclosure were plotted using Prism GraphPad software, and the IC50 values were calculated therefrom.

IKZF3 = molecular target: T1, IKZF3 (Homo sapiens, UniProt Q96SW2+Q9UKT9); test: Western-blot assay of substrate protein degradation in hPBMCs, IKZF3; assay type: cell-based; details: 24 hours of compound treatment
T1 construct: endogenous in cells; host or cells: hPBMCs (Milecell Biotechnologies)

IKZF2 = molecular target: T2, IKZF2 (Homo sapiens, UniProt Q96SW2+Q9UKS7); test: Western-blot assay of substrate protein degradation in hPBMCs, IKZF2; assay type: cell-based; details: 24 hours of compound treatment
T2 construct: endogenous in cells; host or cells: hPBMCs (Milecell Biotechnologies)

[2] = molecular target: T3, human Cereblon WT GST-tagged protein (Homo sapiens, UniProt Q96SW2); test: CRBN-binding affinity by HTRF (CEREBLON BINDING kit); details: HTRF inhibitory activity, CEREBLON BINDING kit; read-out: HTRF IC50
T3 construct: purchased CISBIO 64BDCRBNPEH

GSPT1 = molecular target: T4, GSPT1 (Homo sapiens, UniProt P15170+Q96SW2); test: Western-blot assay of substrate protein degradation in hPBMCs, GSPT1; assay type: cell-based; details: 24 hours of compound treatment
T4 construct: endogenous in cells; host or cells: hPBMCs (Milecell Biotechnologies)

WEE1 = molecular target: T5, WEE1 (Homo sapiens, UniProt P30291+Q96SW2); test: Western-blot assay of substrate protein degradation in hPBMCs, WEE1; assay type: cell-based; details: 24 hours of compound treatment
T5 construct: endogenous in cells; host or cells: hPBMCs (Milecell Biotechnologies)

IKZF1 = molecular target: T6, IKZF1 (Homo sapiens, UniProt Q13422+Q96SW2); test: Western-blot assay of substrate protein degradation in hPBMCs, IKZF1; assay type: cell-based; details: 24 hours of compound treatment
T6 construct: endogenous in cells; host or cells: hPBMCs (Milecell Biotechnologies)

CK1α = molecular target: T7, CK1α (Homo sapiens, UniProt P48729+Q96SW2); test: Western-blot assay of substrate protein degradation in hPBMCs, CK1α; assay type: cell-based; details: 24 hours of compound treatment
T7 construct: endogenous in cells; host or cells: hPBMCs (Milecell Biotechnologies)

[3] = compounds tested at 50 nM and 500 nM (concentration of the table not stated)
[4] = 50 nM and 500 nM tested (concentration behind the class not stated)

T1 sequence (Q9UKT9 whole entry): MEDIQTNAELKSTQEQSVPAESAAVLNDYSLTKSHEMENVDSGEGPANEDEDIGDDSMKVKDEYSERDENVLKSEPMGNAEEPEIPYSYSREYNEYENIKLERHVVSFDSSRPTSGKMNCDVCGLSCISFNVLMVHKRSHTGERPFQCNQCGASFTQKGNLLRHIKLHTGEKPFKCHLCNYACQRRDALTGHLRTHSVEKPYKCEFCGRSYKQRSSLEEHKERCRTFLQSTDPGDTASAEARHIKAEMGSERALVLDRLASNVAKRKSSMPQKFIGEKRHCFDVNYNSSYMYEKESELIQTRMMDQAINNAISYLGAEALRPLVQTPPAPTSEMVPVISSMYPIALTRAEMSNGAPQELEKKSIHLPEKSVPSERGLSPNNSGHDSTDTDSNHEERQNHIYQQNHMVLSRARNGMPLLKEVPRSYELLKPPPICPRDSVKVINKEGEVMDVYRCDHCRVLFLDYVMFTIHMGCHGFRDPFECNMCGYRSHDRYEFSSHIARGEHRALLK
T1 sequence (Q96SW2 whole entry): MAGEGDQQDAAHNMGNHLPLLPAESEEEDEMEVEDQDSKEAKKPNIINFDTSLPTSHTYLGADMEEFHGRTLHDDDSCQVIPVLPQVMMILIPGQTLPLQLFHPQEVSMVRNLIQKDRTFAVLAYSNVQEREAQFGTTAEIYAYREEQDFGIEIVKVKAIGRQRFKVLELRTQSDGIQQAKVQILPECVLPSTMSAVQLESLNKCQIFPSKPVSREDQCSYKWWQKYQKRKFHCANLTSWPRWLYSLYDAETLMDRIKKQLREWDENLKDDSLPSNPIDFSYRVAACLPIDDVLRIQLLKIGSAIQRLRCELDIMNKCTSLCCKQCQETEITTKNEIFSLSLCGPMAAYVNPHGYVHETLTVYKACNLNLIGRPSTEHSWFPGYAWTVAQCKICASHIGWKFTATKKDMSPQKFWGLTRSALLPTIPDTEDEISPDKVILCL
T1 sequence (Q16531 whole entry partner): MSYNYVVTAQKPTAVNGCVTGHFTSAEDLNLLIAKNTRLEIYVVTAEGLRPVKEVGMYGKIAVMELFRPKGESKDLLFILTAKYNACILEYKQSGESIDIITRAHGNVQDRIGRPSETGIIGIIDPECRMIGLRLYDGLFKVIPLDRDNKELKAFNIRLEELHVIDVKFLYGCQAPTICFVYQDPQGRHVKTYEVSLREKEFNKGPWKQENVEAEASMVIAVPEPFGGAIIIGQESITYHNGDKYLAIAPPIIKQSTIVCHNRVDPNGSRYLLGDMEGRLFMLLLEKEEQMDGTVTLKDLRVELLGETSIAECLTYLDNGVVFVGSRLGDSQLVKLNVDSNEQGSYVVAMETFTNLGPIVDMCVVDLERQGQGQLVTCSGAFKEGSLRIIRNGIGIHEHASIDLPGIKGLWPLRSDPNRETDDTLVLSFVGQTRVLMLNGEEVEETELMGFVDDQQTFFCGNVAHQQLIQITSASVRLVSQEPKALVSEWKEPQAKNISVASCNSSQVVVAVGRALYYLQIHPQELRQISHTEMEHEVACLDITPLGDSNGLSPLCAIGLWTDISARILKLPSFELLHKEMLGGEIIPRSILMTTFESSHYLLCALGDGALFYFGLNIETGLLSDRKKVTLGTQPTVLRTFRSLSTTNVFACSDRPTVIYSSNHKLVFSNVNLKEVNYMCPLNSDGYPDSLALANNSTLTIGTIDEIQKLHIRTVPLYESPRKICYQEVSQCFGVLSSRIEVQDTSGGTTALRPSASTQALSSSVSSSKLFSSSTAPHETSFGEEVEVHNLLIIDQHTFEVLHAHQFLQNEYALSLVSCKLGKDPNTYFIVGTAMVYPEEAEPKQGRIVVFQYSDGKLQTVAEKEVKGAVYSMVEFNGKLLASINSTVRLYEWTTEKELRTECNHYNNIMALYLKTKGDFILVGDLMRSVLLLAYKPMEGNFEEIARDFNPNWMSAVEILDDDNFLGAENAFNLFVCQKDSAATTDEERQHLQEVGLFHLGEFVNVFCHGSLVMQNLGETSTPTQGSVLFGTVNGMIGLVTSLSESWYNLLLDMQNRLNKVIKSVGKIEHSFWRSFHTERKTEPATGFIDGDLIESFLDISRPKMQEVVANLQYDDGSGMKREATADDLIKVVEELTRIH
T7 sequence (P48729 whole entry): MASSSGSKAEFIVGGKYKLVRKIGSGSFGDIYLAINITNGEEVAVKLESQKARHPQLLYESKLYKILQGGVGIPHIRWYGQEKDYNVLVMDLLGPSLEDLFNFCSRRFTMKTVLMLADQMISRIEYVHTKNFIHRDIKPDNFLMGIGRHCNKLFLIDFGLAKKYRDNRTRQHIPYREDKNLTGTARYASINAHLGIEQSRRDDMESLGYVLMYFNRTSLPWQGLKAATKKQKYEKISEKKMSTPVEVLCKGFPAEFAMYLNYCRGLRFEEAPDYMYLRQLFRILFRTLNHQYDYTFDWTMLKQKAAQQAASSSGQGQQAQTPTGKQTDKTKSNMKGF
T7 sequence (Q96SW2 whole entry): as the sequence (Q96SW2 whole entry) above
T7 sequence (Q16531 whole entry partner): as the sequence (Q16531 whole entry partner) above
T2 sequence (Q9UKS7 whole entry): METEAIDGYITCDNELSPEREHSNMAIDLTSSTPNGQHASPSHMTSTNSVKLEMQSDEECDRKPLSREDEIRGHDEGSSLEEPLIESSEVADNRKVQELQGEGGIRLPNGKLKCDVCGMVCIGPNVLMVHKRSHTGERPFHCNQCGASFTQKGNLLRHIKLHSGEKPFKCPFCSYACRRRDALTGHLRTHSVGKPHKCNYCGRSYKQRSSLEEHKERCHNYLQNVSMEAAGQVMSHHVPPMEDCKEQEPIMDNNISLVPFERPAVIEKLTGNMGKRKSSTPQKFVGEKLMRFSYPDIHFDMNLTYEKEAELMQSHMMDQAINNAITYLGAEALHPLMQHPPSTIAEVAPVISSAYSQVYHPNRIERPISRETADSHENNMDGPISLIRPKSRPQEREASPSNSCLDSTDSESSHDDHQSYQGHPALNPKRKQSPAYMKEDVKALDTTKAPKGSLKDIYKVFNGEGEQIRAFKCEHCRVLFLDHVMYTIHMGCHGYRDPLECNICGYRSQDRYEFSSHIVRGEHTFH
T2 sequence (Q96SW2 whole entry): as the sequence (Q96SW2 whole entry) above
T2 sequence (Q16531 whole entry partner): as the sequence (Q16531 whole entry partner) above
T4 sequence (P15170 whole entry): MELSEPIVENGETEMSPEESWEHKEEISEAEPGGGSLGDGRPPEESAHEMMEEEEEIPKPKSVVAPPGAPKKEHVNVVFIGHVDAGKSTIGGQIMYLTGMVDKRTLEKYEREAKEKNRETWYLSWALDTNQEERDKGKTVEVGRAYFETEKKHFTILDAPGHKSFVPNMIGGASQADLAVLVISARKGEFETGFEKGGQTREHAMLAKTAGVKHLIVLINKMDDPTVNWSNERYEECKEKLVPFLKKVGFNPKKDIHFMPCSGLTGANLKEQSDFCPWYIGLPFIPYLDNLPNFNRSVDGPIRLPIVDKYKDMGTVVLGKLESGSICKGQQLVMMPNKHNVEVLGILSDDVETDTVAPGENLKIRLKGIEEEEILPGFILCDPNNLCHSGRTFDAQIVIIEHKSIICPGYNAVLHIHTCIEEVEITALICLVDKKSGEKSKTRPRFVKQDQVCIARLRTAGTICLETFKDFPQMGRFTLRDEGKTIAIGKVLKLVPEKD
T4 sequence (Q96SW2 whole entry): as the sequence (Q96SW2 whole entry) above
T4 sequence (Q16531 whole entry partner): as the sequence (Q16531 whole entry partner) above
T3 sequence (Q96SW2 whole entry): as the sequence (Q96SW2 whole entry) above
T5 sequence (P30291 whole entry): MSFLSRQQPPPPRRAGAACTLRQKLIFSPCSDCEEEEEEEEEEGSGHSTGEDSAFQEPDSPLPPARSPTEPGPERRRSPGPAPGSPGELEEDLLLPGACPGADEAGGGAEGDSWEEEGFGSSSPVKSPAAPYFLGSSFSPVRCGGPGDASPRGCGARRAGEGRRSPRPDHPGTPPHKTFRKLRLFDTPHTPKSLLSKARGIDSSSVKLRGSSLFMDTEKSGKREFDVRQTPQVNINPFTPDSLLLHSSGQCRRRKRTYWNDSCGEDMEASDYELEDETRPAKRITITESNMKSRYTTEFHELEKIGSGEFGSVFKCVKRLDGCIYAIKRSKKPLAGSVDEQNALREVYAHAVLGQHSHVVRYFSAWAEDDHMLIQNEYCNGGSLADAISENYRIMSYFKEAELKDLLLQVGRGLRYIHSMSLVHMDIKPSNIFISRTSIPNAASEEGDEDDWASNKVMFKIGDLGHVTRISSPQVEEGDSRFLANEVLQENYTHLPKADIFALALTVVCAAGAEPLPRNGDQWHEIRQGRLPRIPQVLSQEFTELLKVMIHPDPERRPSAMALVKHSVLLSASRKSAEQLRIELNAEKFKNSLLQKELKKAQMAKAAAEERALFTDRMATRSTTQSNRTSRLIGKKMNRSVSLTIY
T5 sequence (Q96SW2 whole entry): as the sequence (Q96SW2 whole entry) above
T5 sequence (Q16531 whole entry partner): as the sequence (Q16531 whole entry partner) above

SMILES	IC50 [1] [nM]	IKZF3 substrate protein remaining % (IKZF3; [3])	IKZF2 substrate protein remaining % (IKZF2; [3])	IC50 [2] [µM]	GSPT1 substrate protein remaining % (GSPT1; [3])	Weel substrate protein remaining % (WEE1; [3])	IKZF 1 substrate protein remaining % (IKZF1; [3])	CK1a substrate protein remaining % (CK1α; [3])	IKZF3 substrate protein remaining % (IKZF3; [4])	IKZF2 substrate protein remaining % (IKZF2; [4])	GSPT1 substrate protein remaining % (GSPT1; [4])	Weel substrate protein remaining % (WEE1; [4])	IKZF 1 substrate protein remaining % (IKZF1; [4])	CK1a substrate protein remaining % (CK1α; [4])
Cc1ccsc1N1CCN(Cc2ccc3c(c2)CN(C2CCC(=O)NC2=O)C3=O)CC1 (centres unmarked) [GT-04582, 3-(5-((4-(3-methylthiophen-2-yl)piperazin-1-yl)methyl)-1-oxoisoindolin-2-yl)piperidine-2,6-dione]	50 to 100	A (0% ≤ substrate protein remaining % ≤ 80%)	A (0% ≤ substrate protein remaining % ≤ 80%)	< 0.5	A (0% ≤ substrate protein remaining % ≤ 80%)	A (0% ≤ substrate protein remaining % ≤ 80%)	A (0% ≤ substrate protein remaining % ≤ 80%)	B (80%< substrate protein remaining %≤ 100%)						
O=C1CCC(N2Cc3cc(CN4CCN(c5nccc(Cl)c5F)CC4)ccc3C2=O)C(=O)N1 (centres unmarked) [GT-04610, 3-(5-((4-(4-chloro-3-fluoropyridin-2-yl)piperazin-1-yl)methyl)-1-oxoisoindolin-2-yl)piperidine-2,6-dione]	500 to 1000	A (0% ≤ substrate protein remaining % ≤ 80%)	A (0% ≤ substrate protein remaining % ≤ 80%)	0.5 to 1	A (0% ≤ substrate protein remaining % ≤ 80%)	A (0% ≤ substrate protein remaining % ≤ 80%)	A (0% ≤ substrate protein remaining % ≤ 80%)	A (0% ≤ substrate protein remaining % ≤ 80%)						
Cc1ccsc1C1=CCN(Cc2cccc3c2C(=O)N(C2CCC(=O)NC2=O)C3=O)CC1 (centres unmarked) [GT-04731, 2-(2,6-dioxopiperidin-3-yl)-4-((4-(3-methylthiophen-2-yl)-3,6-dihydropyridin-1(2H)-yl)methyl)isoindoline-1,3-dione]	500 to 1000	B (80%< substrate protein remaining %≤ 100%)	B (80%< substrate protein remaining %≤ 100%)		A (0% ≤ substrate protein remaining % ≤ 80%)	B (80%< substrate protein remaining %≤ 100%)	B (80%< substrate protein remaining %≤ 100%)	B (80%< substrate protein remaining %≤ 100%)						
O=C1CCC(N2C(=O)c3ccc(CN4CC=C(c5ncnc6sccc56)CC4)cc3C2=O)C(=O)N1 (centres unmarked) [GT-06653, 2-(2,6-dioxopiperidin-3-yl)-5-((4-(thieno[2,3-d]pyrimidin-4-yl)-3,6-dihydropyridin-1(2H)-yl)methyl)isoindoline-1,3-dione]				0.5 to 1					A (0% ≤ substrate protein remaining % ≤ 80%)	B (80%< substrate protein remaining %≤ 100%)	A (0% ≤ substrate protein remaining % ≤ 80%)	A (0% ≤ substrate protein remaining % ≤ 80%)	A (0% ≤ substrate protein remaining % ≤ 80%)	B (80%< substrate protein remaining %≤ 100%)
Cc1cc2c(C3=CCN(Cc4ccc5c(c4)C(=O)N(C4CCC(=O)NC4=O)C5=O)CC3)ncnc2s1 (centres unmarked) [GT-06655, 2-(2,6-dioxopiperidin-3-yl)-5-((4-(6-methylthieno[2,3-d]pyrimidin-4-yl)-3,6-dihydropyridin-1(2H)-yl)methyl)isoindoline-1,3-dione]				0.5 to 1					A (0% ≤ substrate protein remaining % ≤ 80%)	A (0% ≤ substrate protein remaining % ≤ 80%)	A (0% ≤ substrate protein remaining % ≤ 80%)	A (0% ≤ substrate protein remaining % ≤ 80%)	A (0% ≤ substrate protein remaining % ≤ 80%)	B (80%< substrate protein remaining %≤ 100%)
Cc1sc2ncnc(C3=CCN(Cc4ccc5c(c4)C(=O)N(C4CCC(=O)NC4=O)C5=O)CC3)c2c1C (centres unmarked) [GT-06657, 5-((4-(5,6-dimethylthieno[2,3-d]pyrimidin-4-yl)-3,6-dihydropyridin-1 (2H)-yl)methyl)-2-(2,6-dioxopiperidin-3-yl)isoindoline-1,3-dione]				1 to 1.5					B (80%< substrate protein remaining %≤ 100%)	B (80%< substrate protein remaining %≤ 100%)	A (0% ≤ substrate protein remaining % ≤ 80%)	A (0% ≤ substrate protein remaining % ≤ 80%)	A (0% ≤ substrate protein remaining % ≤ 80%)	B (80%< substrate protein remaining %≤ 100%)
O=C1CCC(N2C(=O)c3ccc(CN4CC=C(c5ncnc6scc(-c7ccccc7)c56)CC4)cc3C2=O)C(=O)N1 (centres unmarked) [GT-06676, 2-(2,6-dioxopiperidin-3-yl)-5-((4-(5-phenylthieno[2,3-d]pyrimidin-4-yl)-3,6-dihydropyridin-1(2H)-yl)methyl)isoindoline-1,3-dione]				1 to 1.5					B (80%< substrate protein remaining %≤ 100%)	B (80%< substrate protein remaining %≤ 100%)	B (80%< substrate protein remaining %≤ 100%)	A (0% ≤ substrate protein remaining % ≤ 80%)	B (80%< substrate protein remaining %≤ 100%)	A (0% ≤ substrate protein remaining % ≤ 80%)
Cc1nc(C2=CCN(Cc3ccc4c(c3)C(=O)N(C3CCC(=O)NC3=O)C4=O)CC2)c2c(-c3ccccc3)csc2n1 (centres unmarked) [GT-06677, 2-(2,6-dioxopiperidin-3-yl)-5-((4-(2-methyl-5-phenylthieno[2,3-d]pyrimidin-4-yl)-3,6-dihydropyridin-1(2H)-yl)methyl)isoindoline-1,3-dione]				0.5 to 1					B (80%< substrate protein remaining %≤ 100%)	B (80%< substrate protein remaining %≤ 100%)	B (80%< substrate protein remaining %≤ 100%)	B (80%< substrate protein remaining %≤ 100%)	B (80%< substrate protein remaining %≤ 100%)	A (0% ≤ substrate protein remaining % ≤ 80%)
Cc1nc(C2=CCN(Cc3ccc4c(c3)C(=O)N(C3CCC(=O)NC3=O)C4=O)CC2)c2c3c(sc2n1)CCC3 (centres unmarked) [GT-06682, 2-(2,6-dioxopiperidin-3-yl)-5-((4-(2-methyl-6,7-dihydro-5H-cyclopenta[4,5]thieno[2,3-d]pyrimidin-4-yl)-3,6-dihydropyridin-1(2H)-yl)methyl)isoindoline-1,3-dione]				1.5 to 1.9					A (0% ≤ substrate protein remaining % ≤ 80%)	A (0% ≤ substrate protein remaining % ≤ 80%)	A (0% ≤ substrate protein remaining % ≤ 80%)	A (0% ≤ substrate protein remaining % ≤ 80%)	B (80%< substrate protein remaining %≤ 100%)	B (80%< substrate protein remaining %≤ 100%)
O=C1CCC(N2C(=O)c3ccc(CN4CCC(c5c[nH]c6ncccc56)CC4)cc3C2=O)C(=O)N1 (centres unmarked) [GT-06705, 5-((4-(1H-pyrrolo[2,3-b]pyridin-3-yl)piperidin-1-yl)methyl)-2-(2,6-dioxopiperidin-3-yl)isoindoline-1,3-dione]				1.5 to 1.9					B (80%< substrate protein remaining %≤ 100%)	B (80%< substrate protein remaining %≤ 100%)	A (0% ≤ substrate protein remaining % ≤ 80%)	A (0% ≤ substrate protein remaining % ≤ 80%)	B (80%< substrate protein remaining %≤ 100%)	B (80%< substrate protein remaining %≤ 100%)
O=C1CCC(N2Cc3cc(CNC45CC6CC(CC(C6)C4)C5)ccc3C2=O)C(=O)N1 (centres unmarked) [GT-06913, 3-(5-((((3s,5s,7s)-adamantan-1-yl)amino)methyl)-1-oxoisoindolin-2-yl)piperidine-2,6-dione]				1.5 to 1.9					B (80%< substrate protein remaining %≤ 100%)	A (0% ≤ substrate protein remaining % ≤ 80%)	A (0% ≤ substrate protein remaining % ≤ 80%)	A (0% ≤ substrate protein remaining % ≤ 80%)	A (0% ≤ substrate protein remaining % ≤ 80%)	A (0% ≤ substrate protein remaining % ≤ 80%)
CC1(C)[C@@H]2CC[C@]1(CS(=O)(=O)NCc1ccc3c(c1)CN(C1CCC(=O)NC1=O)C3=O)C(=O)C2 (some centres unmarked) [GT-06927]				0.5 to 1					B (80%< substrate protein remaining %≤ 100%)	B (80%< substrate protein remaining %≤ 100%)	B (80%< substrate protein remaining %≤ 100%)	B (80%< substrate protein remaining %≤ 100%)	B (80%< substrate protein remaining %≤ 100%)	A (0% ≤ substrate protein remaining % ≤ 80%)
